According to PMC2116235 (The Journal of Cell Biology, 1990):

What was measured:
[1] = system: adhesion of bovine aortic endothelial cells to NC1 domain; experiment: Competition of endothelial cell binding to NC1 domain by peptides; format: cell-based
[2] = target: T1, type IV collagen (Mus musculus, UniProt P02463+P08122); experiment: Solid phase binding of 125I-peptides to type IV collagen; parameters: species or system murine (EHS tumor); conditions: 37C, 2 h; for Competition of bound 125I-peptide by unlabeled corresponding peptide: 5 µg 125I-peptide, unlabeled peptide up to 400-fold excess (2 mg/ml)
T1 sequence (P02463 173-1669): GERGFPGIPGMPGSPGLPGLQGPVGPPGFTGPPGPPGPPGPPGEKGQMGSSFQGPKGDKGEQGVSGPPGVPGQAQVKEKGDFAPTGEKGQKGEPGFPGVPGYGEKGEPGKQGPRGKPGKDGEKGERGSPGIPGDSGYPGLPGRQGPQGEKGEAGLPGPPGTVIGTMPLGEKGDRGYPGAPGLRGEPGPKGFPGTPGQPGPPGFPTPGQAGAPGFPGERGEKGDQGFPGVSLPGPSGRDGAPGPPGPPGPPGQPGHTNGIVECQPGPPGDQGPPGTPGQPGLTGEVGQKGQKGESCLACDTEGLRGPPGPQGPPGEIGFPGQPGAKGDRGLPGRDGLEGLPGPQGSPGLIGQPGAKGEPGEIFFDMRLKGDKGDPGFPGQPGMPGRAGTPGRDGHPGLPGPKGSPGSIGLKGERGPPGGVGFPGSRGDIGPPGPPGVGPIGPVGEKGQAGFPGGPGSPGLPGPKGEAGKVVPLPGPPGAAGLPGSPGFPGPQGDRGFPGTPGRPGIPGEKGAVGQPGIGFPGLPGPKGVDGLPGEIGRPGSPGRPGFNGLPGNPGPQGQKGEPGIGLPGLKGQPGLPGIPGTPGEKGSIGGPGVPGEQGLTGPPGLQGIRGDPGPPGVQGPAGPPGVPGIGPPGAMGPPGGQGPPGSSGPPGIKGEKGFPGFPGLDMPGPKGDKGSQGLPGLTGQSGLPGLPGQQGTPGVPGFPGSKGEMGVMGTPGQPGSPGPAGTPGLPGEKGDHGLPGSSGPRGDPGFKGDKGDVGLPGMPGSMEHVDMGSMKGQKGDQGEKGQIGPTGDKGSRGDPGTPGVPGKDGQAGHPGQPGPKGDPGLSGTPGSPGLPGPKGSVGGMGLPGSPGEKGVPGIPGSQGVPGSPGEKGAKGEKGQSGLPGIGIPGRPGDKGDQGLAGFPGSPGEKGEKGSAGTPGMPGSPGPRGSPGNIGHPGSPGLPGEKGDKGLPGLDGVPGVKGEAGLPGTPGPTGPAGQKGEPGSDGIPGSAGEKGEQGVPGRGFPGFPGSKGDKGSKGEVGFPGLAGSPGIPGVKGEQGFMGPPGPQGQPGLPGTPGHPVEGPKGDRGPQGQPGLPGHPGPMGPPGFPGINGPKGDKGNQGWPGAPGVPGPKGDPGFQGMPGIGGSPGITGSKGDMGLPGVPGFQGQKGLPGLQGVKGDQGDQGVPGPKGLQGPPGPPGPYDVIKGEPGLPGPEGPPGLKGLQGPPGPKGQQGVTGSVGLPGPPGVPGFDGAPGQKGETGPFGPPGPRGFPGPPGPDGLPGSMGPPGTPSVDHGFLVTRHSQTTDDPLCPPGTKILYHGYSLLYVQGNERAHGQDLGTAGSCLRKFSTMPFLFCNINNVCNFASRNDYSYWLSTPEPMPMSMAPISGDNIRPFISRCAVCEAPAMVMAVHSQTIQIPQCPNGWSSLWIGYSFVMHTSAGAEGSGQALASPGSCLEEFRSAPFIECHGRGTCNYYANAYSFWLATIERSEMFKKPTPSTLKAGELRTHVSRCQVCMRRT
T1 sequence (P08122 29-1707 limits assumed): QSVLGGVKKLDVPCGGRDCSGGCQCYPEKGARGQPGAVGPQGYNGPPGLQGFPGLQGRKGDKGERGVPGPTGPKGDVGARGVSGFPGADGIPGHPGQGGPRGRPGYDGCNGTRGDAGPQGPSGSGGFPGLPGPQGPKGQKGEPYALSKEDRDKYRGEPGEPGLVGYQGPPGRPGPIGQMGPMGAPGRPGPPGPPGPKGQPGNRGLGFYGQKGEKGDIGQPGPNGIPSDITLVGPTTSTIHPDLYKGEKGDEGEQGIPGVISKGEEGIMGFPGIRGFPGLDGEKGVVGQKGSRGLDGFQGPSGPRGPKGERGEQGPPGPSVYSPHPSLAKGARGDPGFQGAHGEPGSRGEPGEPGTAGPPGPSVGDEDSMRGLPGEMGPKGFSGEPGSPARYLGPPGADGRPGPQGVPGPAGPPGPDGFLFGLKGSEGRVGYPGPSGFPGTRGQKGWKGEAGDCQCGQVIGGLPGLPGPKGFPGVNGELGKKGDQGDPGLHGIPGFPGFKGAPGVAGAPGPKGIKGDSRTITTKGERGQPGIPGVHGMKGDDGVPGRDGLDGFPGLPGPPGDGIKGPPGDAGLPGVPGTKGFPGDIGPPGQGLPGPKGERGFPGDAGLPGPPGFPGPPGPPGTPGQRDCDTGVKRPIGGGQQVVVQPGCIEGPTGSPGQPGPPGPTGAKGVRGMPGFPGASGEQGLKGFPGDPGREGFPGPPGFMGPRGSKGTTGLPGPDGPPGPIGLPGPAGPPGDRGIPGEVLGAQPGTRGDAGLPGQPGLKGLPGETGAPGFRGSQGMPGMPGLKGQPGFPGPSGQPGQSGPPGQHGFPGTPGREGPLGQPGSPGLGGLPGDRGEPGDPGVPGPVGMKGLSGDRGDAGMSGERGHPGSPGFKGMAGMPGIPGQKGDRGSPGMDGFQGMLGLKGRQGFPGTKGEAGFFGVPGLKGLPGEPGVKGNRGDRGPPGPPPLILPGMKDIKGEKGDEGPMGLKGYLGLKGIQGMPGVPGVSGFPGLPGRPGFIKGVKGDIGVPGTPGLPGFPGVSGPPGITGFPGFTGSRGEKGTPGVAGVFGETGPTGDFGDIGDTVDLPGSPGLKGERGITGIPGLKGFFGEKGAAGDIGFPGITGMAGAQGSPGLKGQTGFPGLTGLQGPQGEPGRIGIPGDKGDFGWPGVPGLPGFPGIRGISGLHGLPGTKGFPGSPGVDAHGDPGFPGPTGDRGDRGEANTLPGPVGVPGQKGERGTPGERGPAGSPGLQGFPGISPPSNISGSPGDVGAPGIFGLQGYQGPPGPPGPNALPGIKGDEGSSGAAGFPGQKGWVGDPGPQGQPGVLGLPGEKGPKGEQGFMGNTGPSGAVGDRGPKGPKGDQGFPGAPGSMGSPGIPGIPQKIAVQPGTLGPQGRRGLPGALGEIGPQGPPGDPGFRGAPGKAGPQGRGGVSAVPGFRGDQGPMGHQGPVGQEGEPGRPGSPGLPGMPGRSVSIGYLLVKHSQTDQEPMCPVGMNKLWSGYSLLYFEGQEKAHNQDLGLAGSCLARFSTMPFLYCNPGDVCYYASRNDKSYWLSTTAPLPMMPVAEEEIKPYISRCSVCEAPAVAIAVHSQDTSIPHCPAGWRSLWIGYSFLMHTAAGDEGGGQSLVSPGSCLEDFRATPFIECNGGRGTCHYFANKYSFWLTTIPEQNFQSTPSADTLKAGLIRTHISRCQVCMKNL

[3] = system: murine melanoma cells; experiment: Adhesion of murine melanoma cells; format: cell-based; conditions: preliminary observations
[4] = system: bovine aortic endothelial cells; experiment: Cell spreading assay; format: cell-based; conditions: 37C
[5] = system: bovine aortic endothelial cells; experiment: Binding of 125I-Hep-I to endothelial cells in solution, direct and competition; conditions: 5 µg 125I-Hep-I; unlabeled peptide up to 400-fold excess, 4C, 20 min
[6] = cited from earlier work
[7] = system: type IV collagen; conditions: cited from earlier work
[8] = system: adhesion of bovine aortic endothelial cells to type IV collagen; experiment: Competition of endothelial cell binding to type IV collagen by peptides; format: cell-based; conditions: ~5 µg (100 µg/ml) peptide; type IV collagen coated at 10 µg/ml; 60 min at 37C
[9] = system: BSA; experiment: Nonspecific binding of peptide to BSA-coated plastic; conditions: BSA coated onto plastic; all concentrations used; data not shown
[10] = system: microvascular endothelial cells; experiment: Adhesion of microvascular endothelial cells; format: cell-based; conditions: preliminary observations
[11] = target: intact type IV collagen (EHS tumor) (mouse (endogenous in the EHS tumor)); experiment: rotary shadowing electron microscopy
[12] = system: adhesion of bovine aortic endothelial cells to type IV collagen; format: cell-based; conditions: type IV collagen 1-60 µg/ml; glycosaminoglycan up to 10 mg/ml; 60 min at 37C
[13] = target: T1, type IV collagen; experiment: Turbidity of type IV collagen assembly; format: biochemical, murine (EHS tumor); conditions: peptide 100 µg/ml with type IV collagen-NC1 domain mixtures, 37C, 360 nm
[14] = system: bovine aortic endothelial cells; experiment: Direct solid phase cell-binding; format: cell-based; conditions: 35S-labeled cells, 37C, 30-60 min
[15] = system: bovine aortic endothelial cells; conditions: as compared to fibronectin or laminin; cited from earlier work
[16] = 30 min, substrate type IV collagen 10 µg/ml or peptide Hep-I 20 µg/ml

GRGDSP [reference compound]
Effect on endothelial cell adhesion to NC1 domain ([1]; up to 500 µg/ml inhibitor, NC1 coated 20 µg/ml, 60 min at 37C): did not have any effect

TAGSCLRKFSTM [peptide Hep-I]
Competition of bound 125I-peptide by unlabeled corresponding peptide [2]: efficient competition
Adhesion of murine melanoma cells [3]: also adhered
Spread cells, of attached endothelial cells [4, 16]: ~ 60%
Spread cells, of attached endothelial cells ([4]; 60 min, peptide Hep-I substrate 20 µg/ml): 83%
Spread cells, of attached endothelial cells ([4]; 90 min, peptide Hep-I substrate 20 µg/ml): 84%
Endothelial cell adhesion to NC1 domain ([1]; 1 µg (20 µg/ml) peptide, NC1 coated 20 µg/ml, 100% = no inhibitor, 60 min at 37C): ≤ 20%
Inhibition of cell adhesion on NC1 domain substrates ([1]; substrates coated with NC1 domain (Discussion)): ~ 80%
Competition for binding of 125I-Hep-I to endothelial cells [5]: efficiently competed
Binding to heparin [6]: specifically bound heparin
Inhibition of the binding of heparin to type IV collagen [7]: dose-dependent manner
Maximal inhibition of adhesion to type IV collagen [8]: ~ 50%
Nonspecific binding of the peptide to BSA, of total binding to type IV collagen [9]: < 2%
Adhesion of microvascular endothelial cells [10]: also adhered

intact type IV collagen (EHS tumor) (complex)
percent of the total type IV collagen in the lattice [11]: 74%

heparin
Effect on endothelial cell binding to type IV collagen [12]: unaffected

MFKKPTPSTLKAGELR [peptide 4]
Additive effect on maximal turbidity [13]: did not have any additive effect

DPLCPPGTKIL [peptide 1]
Competition of bound 125I-peptide by unlabeled corresponding peptide [2]: could not be competed
Nature of binding to type IV collagen ([2]; solid phase, 125I-peptide, pH 7.4): this binding should not be specific
Additive effect on maximal turbidity [13]: did not have any additive effect

type IV collagen: type IV collagen isolated from the EHS tumor, a murine tumor
Adhesion of added endothelial cells ([14]; coated at 0.05 µg/well, ~5,000/well): ~ 20%
Adhesion of added endothelial cells ([14]; coated at 5 µg/well): ~ 40%
Spread cells, of attached endothelial cells [4, 16]: ~ 92.8%
Preferential adhesion of aortic endothelial cells [15]: preferably adhered
Binding to heparin [6]: specifically bound heparin

BSA: control coating protein [reference compound]
Adhesion of added endothelial cells in spreading experiment ([4]; BSA substrate 5 µg/ml, all time intervals (30-90 min)): 1.7-2.2%

GDSRTITTKGERGQP [peptide ET-2]
Competition for binding of 125I-Hep-I to endothelial cells [5]: failed to compete
